Experimental data from patent US20250206722A1, “SMALL MOLECULE INHIBITORS OF TEA DOMAIN FAMILY MEMBERS” (The Scripps Research Institute, priority 2022, published 2025).

Tests used:
Type in all cases: cell-based
[1] = tested on: IMR32 cells; test: IMR32 cytotoxicity assay; conditions: Homo sapiens, IMR-32, 72 h, 3 days, Cell TiterGlo
Method: IMR32 cells were obtained from American Type Culture Collection (ATCC, CCL-127) and cultured in DMEM (Corning, 10-013-CV) supplemented with 10% fetal bovine serum (Gibco, 10438-026) and 1% penicillin-streptomycin (Gibco, 15070063). Cells were trypsinized, resuspended in growth medium, and diluted to a concentrated of 20,000 cells/mL. 1,000 cells, 50 μL of cell suspension, per well were then plated in a white 384-well plate (Corning) and incubated at 37° C., 5% CO2. After 24 hours incubation, 100 nL of test compounds in DMSO, 20-point 1:2 dilution starting from 20 μM (final concentration) in triplicate, were transferred to each well using an Agilent Bravo instrument outfitted with a pintool head. Cells were incubated at 37° C., 5% CO2 for 3 days followed by the addition of 30 μL of Cell TiterGlo (Promega; diluted 1:6 in water) to each well and luminescence values recorded using an EnVision plate reader. […]

[2] = tested on: transcriptional activity of TEADs; test: TEAD reporter assay (MCF7 TEAD-LUC reporter cells); conditions: Homo sapiens, 24 hours, BrightGlo luminescence
How it was run: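 Luminescence (BrightGlo) was read after 24 h of compound treatment at 37 °C, 5 % CO2. Cells had been seeded at 5,000 per well in DMEM with 10 % FBS and insulin and rested 24 h first. Dosing used 20 points, 1:2 dilution from 20 μM final, triplicates.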

[3] = tested on: NCI-H226 cells; test: NCI-H226 proliferation assay (in house); conditions: Homo sapiens, 120 h, 5 days, Cell TiterGlo, 20-point 1:2 dilution from 20 μM
How it was run: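 Viability by CellTiter-Glo luminescence after 5-day compound exposure at 37 °C, 5% CO2. Compounds added 24 h post-seeding (500 cells/well, RPMI 1640 with 10% FBS) as 20-point, 2-fold series from 20 μM final, triplicate wells.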

[4] = tested on: NCI-H226 cells; test: NCI-H226 proliferation assay (Wuxi AppTec); conditions: Homo sapiens, 168 h, 7 days, CellTiter-Glo, top dose 10, 3-fold dilution, 9 doses
How it was run: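 NCI-H226 cells were seeded at 500 cells/well overnight, then treated with compounds in a 9-point, 3-fold dilution from a top dose of 10 μM, with 0.2% DMSO. Plates were incubated 7 days at 37° C, 5% CO2. Viability was read by CellTiter-Glo luminescence, normalized to DMSO (max) and medium-only (min) controls.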

| SMILES | IC50 [1] | IC50 [2] | IC50 [3] | IC50 [4] |
| --- | --- | --- | --- | --- |
| C=CC(=O)N[C@H]1C[C@@H](Nc2nccnc2Nc2ccc(C(F)(F)F)cc2)C1 [Example 5, N-((ls,3s)-3-((3-((4-(trifluoromethyl)phenyl)amino)pyrazin-2-yl)amino)cyclobutyl) acrylamide] | > 20000 nM | 408 nM | 13.7 µM | – |
| C=CC(=O)N1CCN(c2nccnc2Oc2ccc(C(F)(F)F)cc2)CC1 [Example 69, 1-(4-(3-(4-(trifluoromethyl)phenoxy)pyrazin-2-yl)piperazin-1-yl)prop-2-en-1-one] | > 20000 nM | 0.9 nM | 0.0115 µM | – |
| C=CC(=O)N1CCC(Nc2nccnc2Nc2ccc(C(F)(F)F)cc2)C1 (stereo not shown) [Example 8, 1-(3-((3-((4-(trifluoromethyl)phenyl)amino)pyrazin-2-yl)amino)pyrrolidin-1-yl)prop-2-en-1-one] | > 5000 nM | 49.3 nM | 8.48 µM | – |
| C=CC(=O)N(C)CCOc1nccnc1Nc1ccc(C(F)(F)F)cc1 [Example 191, N-methyl-N-(2-((3-((4-(trifluoromethyl)phenyl)amino)pyrazin-2-yl)oxy)ethyl)acrylamide] | 10000 nM | 4.3 nM | 0.047 µM | – |
| C=CC(=O)N1CC=C(c2nccnc2Nc2ccc(C(F)(F)F)cc2)CC1 [Example 25, 1-[4-(3-{[4-(trifluoromethyl)phenyl]amino}pyrazin-2-yl)-3,6-dihydro-2H-pyridin-1-yl]prop-2-en-1-one] | 15500 nM | 2.1 nM | 0.006 µM | – |
| CC(C)(C#N)N1CCN(c2nccnc2Nc2ccc(C(F)(F)F)cc2)CC1 [Example 176, 2-methyl-2-(4-(3-((4-(trifluoromethyl)phenyl)amino)pyrazin-2-yl)piperazin-1-yl)propanenitrile] | > 10000 nM | 2500 nM | 9.95 µM | – |
| C=CC(=O)N1CCN(c2nccnc2Oc2ccc(C(F)(F)F)cn2)CC1 [Example 73, 1-(4-(3-((5-(trifluoromethyl)pyridin-2-yl)oxy)pyrazin-2-yl)piperazin-1-yl)prop-2-en-1-one] | > 20000 nM | 3 nM | 0.025 µM | 0.032 µM |
| CC(=O)N1CCN(c2nccnc2Nc2ccc(C(F)(F)F)cc2)CC1 [Example 168, 1-(4-(3-((4-(trifluoromethyl)phenyl)amino)pyrazin-2-yl)piperazin-1-yl)ethan-1-one] | > 20000 nM | 487 nM | > 10 µM | – |
| C=CC(=O)NCCOc1nccnc1Nc1ccc(C(F)(F)F)cc1 [Example 192, N-(2-((3-((4-(trifluoromethyl)phenyl)amino)pyrazin-2-yl)oxy)ethyl)acrylamide] | > 20000 nM | 17.9 nM | 1.78 µM | – |
| C=CC(=O)NC1CCN(c2nccnc2Nc2ccc(C(F)(F)F)cc2)CC1 [Example 9, N-(1-(3-((4-(trifluoromethyl)phenyl)amino)pyrazin-2-yl)piperidin-4-yl)acrylamide] | 10000 nM | 29.6 nM | > 10 µM | – |
| C=CC(=O)N1CCN(c2nccnc2Nc2ccc(C(F)(F)F)cc2)C[C@@H]1CO [Example 15, (R)-1-(2-(hydroxymethyl)-4-(3-((4-(trifluoromethyl)phenyl)amino)pyrazin-2-yl)piperazin-1-yl)prop-2-en-1-one] | 10000 nM | 5000 nM | > 20 µM | – |
| C#CC(=O)N1CCN(c2nccnc2Nc2ccc(C(F)(F)F)cc2)CC1 [Example 173, 1-(4-(3-((4-(trifluoromethyl)phenyl)amino)pyrazin-2-yl)piperazin-1-yl)prop-2-yn-1-one] | 202 nM | 36.5 nM | 0.507 µM | – |
| C=CC(=O)N1CCN(c2nccnc2Nc2ncc(C(F)(F)F)cn2)CC1 [Example 41, 1-(4-(3-((5-(trifluoromethyl)pyrimidin-2-yl)amino)pyrazin-2-yl)piperazin-1-yl)prop-2-en-1-one] | > 20000 nM | 23 nM | 0.198 µM | – |
| C=CC(=O)N1CCN(c2nccnc2Nc2ccc(C(F)(F)F)cc2)C[C@H]1CC#N [Example 21, (R)-2-(1-acryloyl-4-(3-((4-(trifluoromethyl)phenyl)amino)pyrazin-2-yl)piperazin-2-yl)acetonitrile] | > 10000 nM | 43 nM | 0.32 µM | – |
| C#CCN(C)C/C=C/C(=O)N1CCN(c2nccnc2Nc2ccc(C(F)(F)F)cc2)CC1 [Example 179, (E)-4-(methyl(prop-2-yn-1-yl)amino)-1-(4-(3-((4-(trifluoromethyl)phenyl)amino)pyrazin-2-yl)piperazin-1-yl)but-2-en-1-one] | > 20000 nM | > 10000 nM | 2.48 µM | – |
| C=CC(=O)N1CCN(c2nccnc2Nc2cnc(C(F)(F)F)nc2)CC1 [Example 52, 1-(4-(3-((2-(trifluoromethyl)pyrimidin-5-yl)amino)pyrazin-2-yl)piperazin-1-yl)prop-2-en-1-one] | > 20000 nM | 10.5 nM | 0.128 µM | – |
| C=CC(=O)N1CCN(c2nccnc2-c2cccc(C(F)(F)F)c2)CC1 [Example 29, 1-(4-(3-(3-(trifluoromethyl)phenyl)pyrazin-2-yl)piperazin-1-yl)prop-2-en-1-one] | > 20000 nM | > 20000 nM | > 20 µM | – |
| C=CC(=O)N1CCN(c2ccnc(Nc3ccc(C(F)(F)F)cc3)n2)CC1 [Example 123, 1-[4-(2-{[4-(trifluoromethyl)phenyl]amino}pyrimidin-4-yl)piperazin-1-yl]prop-2-en-1-one] | 4870 nM | 279 nM | 0.91 µM | – |
| C=CC(=O)N1CCN(c2nccnc2Nc2ccc(F)cc2)CC1 [Example 33, 1-(4-(3-((4-fluorophenyl)amino)pyrazin-2-yl)piperazin-1-yl)prop-2-en-1-one] | > 20000 nM | 10.2 nM | 0.101 µM | – |
| O=C(CCl)N1CCN(c2nccnc2Nc2ccc(C(F)(F)F)cc2)CC1 [Example 170, 2-chloro-1-(4-(3-((4-(trifluoromethyl)phenyl)amino)pyrazin-2-yl)piperazin-1-yl)ethan-1-one] | 760 nM | 267 nM | 0.173 µM | – |
| C=CC(=O)N1CCN(c2nccnc2-c2ccc(C(F)(F)F)cc2)CC1 [Example 28, 1-(4-(3-(4-(trifluoromethyl)phenyl)pyrazin-2-yl)piperazin-1-yl)prop-2-en-1-one] | > 10000 nM | 11.4 nM | 0.0904 µM | – |
| O=C(C(F)Cl)N1CCN(c2nccnc2Nc2ccc(C(F)(F)F)cc2)CC1 (stereo not shown) [Example 169, 2-chloro-2-fluoro-1-(4-(3-((4-(trifluoromethyl)phenyl)amino)pyrazin-2-yl)piperazin-1-yl)ethan-1-one] | > 10000 nM | 13.1 nM | 0.037 µM | – |
| C=CC(=O)N1CCN(c2nccnc2Nc2ccc(C(F)(F)F)cc2)C[C@@H]1CC#N [Example 22, (S)-2-(1-acryloyl-4-(3-((4-(trifluoromethyl)phenyl)amino)pyrazin-2-yl)piperazin-2-yl)acetonitrile] | 15000 nM | 25.9 nM | 0.27 µM | – |
| C=CC(=O)NCC1CCCN(c2nccnc2Nc2ccc(C(F)(F)F)cc2)C1 (stereo not shown) [Example 10, N-((1-(3-((4-(trifluoromethyl)phenyl)amino)pyrazin-2-yl)piperidin-3-yl)methyl)acrylamide] | 10000 nM | 11400 nM | > 14 µM | – |
| N#CCN1CCN(c2nccnc2Nc2ccc(C(F)(F)F)cc2)CC1 [Example 175, 2-(4-(3-((4-(trifluoromethyl)phenyl)amino)pyrazin-2-yl)piperazin-1-yl)acetonitrile] | > 20000 nM | 833 nM | > 10 µM | – |
| C=CC(=O)N1CCN(c2nccnc2Nc2ccc(Cl)cc2)CC1 [Example 32, 1-(4-(3-((4-chlorophenyl)amino)pyrazin-2-yl)piperazin-1-yl)prop-2-en-1-one] | 20000 nM | 4.67 nM | 0.059 µM | – |
| C=CC(=O)N1CCN(c2nccnc2Nc2ccc(C(F)(F)F)cc2)C(C)C1 (stereo not shown) [Example 24, 1-(3-methyl-4-(3-((4-(trifluoromethyl)phenyl)amino)pyrazin-2-yl)piperazin-1-yl)prop-2-en-1-one] | 2500 nM | 41 nM | 0.0199 µM | – |
| C=CC(=O)NC1CN(c2nccnc2Nc2ccc(C(F)(F)F)cc2)C1 [Example 3, N-(1-(3-((4-(trifluoromethyl)phenyl)amino)pyrazin-2-yl)azetidin-3-yl) acrylamide] | 10000 nM | 3760 nM | 8.24 µM | – |
